{"source": "paper PMC8416020", "about": "(eLife, 2021)", "test_system": "GHSR labeled with 7H4MC-ethylglycine at I134^3.43", "test": "Hydration parameter H from 7H4MC fluorescence emission", "type": "biochemical, human", "conditions": "ligand 10 µM, POPC:POPG nanodiscs, 15°C, ex 320 nm", "description": "We then investigated whether the fluorescence properties of 7H4MC-ethylglycine could report on the local hydration features of GHSR. To this end, we analyzed the 7H4MC emission profile for each of the positions considered. An excitation wavelength of 320 nm was systematically used to excite the neutral form of the fluorophore ([Amaro et al., 2015]). The emission spectra were deconvoluted into their separate components using the procedure initially described ([Amaro et al., 2015]). A hydration parameter H was then determined that corresponded to the sum of the contributions of the anionic and tautomer forms. This parameter is an indicator of the extent of hydration at the position considered, as the higher the H parameter the higher local hydration ([Amaro et al., 2015]). A difference in the H parameter inferred for the 7H4MC probe at the different positions of the apo GHSR was observed depending on the position considered (Figure 2—figure supplement 1, 2).\nFigure 2. Local hydration of growth hormone secretagogue receptor (GHSR) as a function of ligands. […] All ligands were used at a 10 µM concentration. In all cases, the data represents the mean value ± SD of three experiments. Statistical analyses are provided in […]—figure supplement 2 and 4. Figure 2—source data 1. H parameter for GHSR and its mutants. Figure 2—figure supplement 1. Emission spectra of L-(7-hydroxycoumarin-4-yl) (7H4MC)-ethylglycine incorporated into isolated growth hormone secretagogue receptor (GHSR). The spectra were recorded in the absence of ligand. The labeling positions are given in a snake-like plot of GHSR ([Shiimura et al., 2020]) (A) (red: positions deleterious to GHSR function; green: positions considered in this work), and then indicated in each panel (B–F). The excitation wavelength was set to 320 nm with an emission intensity recorded between 340 and 600 nm. The gray curve represents the experimental emission spectrum (exp). The red, blue, green, and magenta spectra represent the decomposition of the experimental spectrum into its neutral (N), complexed (C), anionic (A), and tautomeric (T) components, respectively. The orange curve (fit) corresponds to sum of the individual N, C, A, and T curves. Figure 2—figure supplement 1—source data 1. 7-H4MC emission intensity of the apo GHSR mutants. [drawing 7] Figure 2—figure supplement 2. Statistical analysis of the data in Figure 2. […] Data is from Figure 2. […] Structure of the ligands used throughout this work. [drawing 9] Figure 2—figure supplement 4. Statistical analysis of the data in Figure 2. The left panels show the hydration parameter for each of the mutants in the absence or in the presence of ligands. Data are from Figure 2. The right panels show the mean difference between the apo and the ligand-loaded states for each of the mutants with multiplicity-adjusted 95% confidence intervals. [drawing 10] Figure 2—figure supplement 5. Emission spectra of L-(7-hydroxycoumarin-4-yl) (7H4MC)-ethylglycine incorporated at position 5.58 of growth hormone secretagogue receptor (GHSR) in the presence of pharmacologically distinct ligands or phosphatidylinositol-4,5-bisphosphate (PIP2). […] The excitation wavelength was set to 320 nm with an emission intensity recorded between 340 and 600 nm. The black curve represents the experimental emission spectrum (exp). The red one (fit) corresponds to sum of the individual curves after decomposition of the experimental spectrum into its neutral, complexed, anionic, and tautomeric components. Figure 2—figure supplement 5—source data 1. 7-H4MC emission intensity of the GHSR 5.58 mutant in the presence of ligands. [drawing 11] Figure 2—figure supplement 6. […]", "note": "Where no end group is shown, it is not given here.", "data": [{"substance": "ghrelin: natural full agonist of GHSR, natural peptide agonist (GSSFLSPEHQRVQQRKESKKPPAKLQPR; not fully specified; ends and bridges not checked; UniProt Q9UBU3 24-51, looked up)", "values": [{"measurement": "H parameter", "setting": "replicate 1", "value": 68.24}, {"measurement": "H parameter", "setting": "replicate 2", "value": 63.92}, {"measurement": "H parameter", "setting": "replicate 3", "value": 67.2}]}]}
